Measurements reported in patent publication US20240285688A1, “Extensive whey protein hydrolysate with tolerogenic peptides” (N.V. Nutricia, priority 2019, published 2024).
Peptide text beside a SMILES is read from it.

Experiment: Presence of tolerogenic betalactoglobulin peptides in feed, retentate and permeate of membrane ultrafiltration (micro LC-MS ESI MS2)
Type: physicochemical
Conditions: Example 3: urea (8 M) added after hydrolysis and before ultrafiltration
Description: In a Multifors reactor (Infors HT) 500 gram of whey protein powder (WPC83, Arla Foods, with about 80% whey protein) was dissolved in water at a final concentration of about 4 wt % at a temperature of about 75° C., giving a protein concentration of about 3.2 wt %. After dissolving the mixture was cooled to 58° C. and the pH was adjusted to neutral (pH 7-8). Proteolytic enzymes were added (Trypsin, Neova Technologies Inc) to a concentration of 33 mg/100 g solution and hydrolysis took place for about 105 min under continuous stirring. During hydrolysis the pH was kept constant. After hydrolysis the mixture was quickly cooled to 4° C.
Next the mixture of whey protein hydrolysate and proteolytic enzymes was filtrated. 200 ml of the mixture (the feed) was filtrated for 20 minutes on a MMS Triple System membrane filtration unit (MMS AG Membrane Systems) provided with an ultrafiltration membrane from Koch (Koch: HFK-131, a flat sheet polyethersulfone ultrafiltration membrane with a molecular weight cut off of 10 kDa) under a pressure of 8 bars. A one-layer filtration setup was used and the retentate was circulated during filtration. Each membrane was used only once to promote reproducibility. The filtration cooling system was set to 15° C. The permeate was weighted, MMS filtration software was used for the registering of the permeate throughput. Samples were taken of the mixture before membrane filtration (the feed), and of the permeate and retentate after the membrane filtration step. About 93% of permeate (wt % of total feed) was produced comprising about 85 wt % of peptides (wt % of the peptides in the feed). Samples were stored at −50° C. for further analysis.
The presence of tolerogenic betalactoglobulin peptides in the samples was analyzed according to Gouw et al., 2018, Clin. Exp. Allergy 48:[…], with the modification that instead of nanoLC-ESI MS2, micro LC-MS ESI MS2 was used. The presence of 5 specific peptides was tested (region overlapping with the 13-48 AA acid region of betalactoglobulin in bold):
The process of example 1 was repeated. The only difference was that Citrem (Grinsted® Citrem, DuPont) was added at an amount of about 3.6 gram before the pH adjustment and the addition of the proteolytic enzymes. […]
The process of example 2a was repeated, the only difference being that instead of the emulsifier, 51 gram of urea (source Merck) was dissolved per 100 g water (8 M) and added after the hydrolysis step and before ultrafiltration. […] All peptides were detected in the retentate and feed, and peptides 1, 3, 4 and 5 of example 1 (i.e. SEQ ID NOs 66, 68, 69 and 70 with X=L) were detected in the permeate, in an amount of about 1-10 wt. % of the concentration of these peptides in the feed. […]

| SMILES | presence of the tolerogenic peptides in the permeate |
| --- | --- |
| CC[C@H](C)[C@H](NC(=O)[C@H](CC(=O)O)NC(=O)[C@H](CC(C)C)NC(=O)CNC(=O)[C@H](CCCCN)NC(=O)[C@H](CCSC)NC(=O)[C@@H](NC(=O)[C@H](CCC(N)=O)NC(=O)[C@@H](NC(=O)[C@@H](NC(=O)[C@@H](NC(=O)[C@@H](N)CC(C)C)[C@@H](C)CC)C(C)C)[C@@H](C)O)[C@@H](C)O)C(=O)N[C@@H](CCC(N)=O)C(=O)N[C@@H](CCCCN)C(=O)N[C@H](C(=O)N[C@@H](C)C(=O)NCC(=O)N[C@H](C(=O)N[C@@H](Cc1c[nH]c2ccccc12)C(=O)N[C@@H](Cc1ccc(O)cc1)C(=O)N[C@@H](CO)C(=O)N[C@@H](CC(C)C)C(=O)N[C@@H](C)C(=O)N[C@@H](CCSC)C(=O)N[C@@H](C)C(=O)N[C@@H](C)C(=O)N[C@@H](CO)C(=O)O)[C@@H](C)O)C(C)C [Peptide 1] (H-LIVTQTMKGLDIQKVAGTWYSLAMAAS-OH; N-terminus and C-terminus assumed) | detected |
| CC[C@H](C)[C@H](NC(=O)[C@H](CC(=O)O)NC(=O)[C@H](CC(C)C)NC(=O)CNC(=O)[C@H](CCCCN)NC(=O)[C@H](CCSC)NC(=O)[C@@H](N)[C@@H](C)O)C(=O)N[C@@H](CCC(N)=O)C(=O)N[C@@H](CCCCN)C(=O)N[C@H](C(=O)N[C@@H](C)C(=O)NCC(=O)N[C@H](C(=O)N[C@@H](Cc1c[nH]c2ccccc12)C(=O)N[C@@H](Cc1ccc(O)cc1)C(=O)N[C@@H](CO)C(=O)N[C@@H](CC(C)C)C(=O)N[C@@H](C)C(=O)N[C@@H](CCSC)C(=O)N[C@@H](C)C(=O)N[C@@H](C)C(=O)N[C@@H](CO)C(=O)N[C@@H](CC(=O)O)C(=O)N[C@H](C(=O)N[C@@H](CO)C(=O)N[C@@H](CC(C)C)C(=O)N[C@@H](CC(C)C)C(=O)N[C@@H](CC(=O)O)C(=O)N[C@@H](C)C(=O)N[C@@H](CCC(N)=O)C(=O)O)[C@@H](C)CC)[C@@H](C)O)C(C)C [Peptide 3] (H-TMKGLDIQKVAGTWYSLAMAASDISLLDAQ-OH; N-terminus and C-terminus assumed) | detected |
| CC[C@H](C)[C@H](NC(=O)[C@H](CC(=O)O)NC(=O)[C@H](CC(C)C)NC(=O)CNC(=O)[C@H](CCCCN)NC(=O)[C@H](CCSC)NC(=O)[C@@H](N)[C@@H](C)O)C(=O)N[C@@H](CCC(N)=O)C(=O)N[C@@H](CCCCN)C(=O)N[C@H](C(=O)N[C@@H](C)C(=O)NCC(=O)N[C@H](C(=O)N[C@@H](Cc1c[nH]c2ccccc12)C(=O)N[C@@H](Cc1ccc(O)cc1)C(=O)N[C@@H](CO)C(=O)N[C@@H](CC(C)C)C(=O)N[C@@H](C)C(=O)N[C@@H](CCSC)C(=O)N[C@@H](C)C(=O)N[C@@H](C)C(=O)N[C@@H](CO)C(=O)N[C@@H](CC(=O)O)C(=O)N[C@H](C(=O)N[C@@H](CO)C(=O)N[C@@H](CC(C)C)C(=O)N[C@@H](CC(C)C)C(=O)O)[C@@H](C)CC)[C@@H](C)O)C(C)C [Peptide 4] (H-TMKGLDIQKVAGTWYSLAMAASDISLL-OH; N-terminus and C-terminus assumed) | detected |
| CC[C@H](C)[C@H](NC(=O)[C@H](CC(=O)O)NC(=O)[C@H](CC(C)C)NC(=O)CNC(=O)[C@H](CCCCN)NC(=O)[C@H](CCSC)NC(=O)[C@@H](NC(=O)[C@H](CCC(N)=O)NC(=O)[C@@H](NC(=O)[C@@H](NC(=O)[C@@H](NC(=O)[C@@H](N)CC(C)C)[C@@H](C)CC)C(C)C)[C@@H](C)O)[C@@H](C)O)C(=O)N[C@@H](CCC(N)=O)C(=O)N[C@@H](CCCCN)C(=O)N[C@H](C(=O)N[C@@H](C)C(=O)NCC(=O)N[C@H](C(=O)N[C@@H](Cc1c[nH]c2ccccc12)C(=O)N[C@@H](Cc1ccc(O)cc1)C(=O)N[C@@H](CO)C(=O)N[C@@H](CC(C)C)C(=O)N[C@@H](C)C(=O)N[C@@H](CCSC)C(=O)N[C@@H](C)C(=O)N[C@@H](C)C(=O)N[C@@H](CO)C(=O)N[C@@H](CC(=O)O)C(=O)N[C@H](C(=O)N[C@@H](CO)C(=O)N[C@@H](CC(C)C)C(=O)N[C@@H](CC(C)C)C(=O)O)[C@@H](C)CC)[C@@H](C)O)C(C)C [Peptide 5] (H-LIVTQTMKGLDIQKVAGTWYSLAMAASDISLL-OH; N-terminus and C-terminus assumed) | detected |
